“And” between values parts separate entries of the source, which are not always exact repeats. Identical values can stand only once.
Tested on: rat submandibular gland
Assay: Cationic liposome-mediated hGH gene delivery to rat submandibular gland
Type: in vivo
Design: human growth hormone protein expression, Trial 1 to Trial 8: unit not given here
Details: for human growth hormone protein expression, Average / human growth hormone protein expression, Trial 1 to Trial 8: one week post-administration; for human growth hormone protein expression, Trial 1 to Trial 8: individual glands, DOHBD:DOPE liposome, 175 micrograms pCMV.FOX.hGH per gland, listed as Zn
Procedure: In embodiments in which a liposome/transition metal/nucleic acid mixture was used, 200 μl of the liposome/transition metal/nucleic acid mixture was injected, infused, instilled or administered at the ductal orifice or directly into the duct at any point along its length. See Goldfine, Nature Biotechnology 15:1378, 1997. The liposome/transition metal/nucleic acid mixture was prepared by sequentially adding an appropriate amount of sterile water, liposome solution (3:1, N,N,N′,N′-tetramethyl-N,N′-bis(2-hydroxyethyl)-2,3-bis(9(z)-octadecenoyloxy)-1,4-butanediaminium iodide (DOHBD):DOPE), transition metal enhancer, and the plasmid DNA pCMV.FOX.hGH to a polypropylene tube.
Regardless of whether a liposome/transition metal/nucleic acid mixture or a nucleic acid/transition metal enhancer mixture was delivered, the tubing and mixture was kept in place for ten additional minutes after application of the mixture prior to removal. At 48 hours post atropine administration, the rats were anesthetized by intraperitoneal injection of pentobarbital (50 mg/kg). The right and left submandibular glands were surgically removed, and the tissues were assayed for any observable reporter gene (luciferase of hGH) expression using the methods described below.
In one embodiment, an appropriate mass of cationic lipid and the neutral lipid dioleoylphosphatidylethanolamine (DOPE) was added as solutions in chloroform to 1.9 mL sample vials to yield the desired molar ratio of cationic lipid:DOPE. The chloroform was removed via rotary evaporation at 37° C. The resulting thin lipid films were placed under vacuum overnight to insure that all traces of solvent have been removed. The lipid mixture was resuspended in 1 mL sterile water at 25° C. until the film is hydrated, and then vortex mixed to afford an emulsion. For the in vitro experiments, these emulsions were formulated as a cationic lipid concentration of 1 mM. For the in vivo experiments, the emulsions were formulated at a cationic lipid concentration of 3 mM.
To perform this study, cationic lipid/nucleic acid/zinc mixtures were prepared by mixing the appropriate amount of sterile water, cationic liposomes, zinc chloride and pCMV.FOX.hGH plasmid DNA in a polystyrene tube. Specifically, 40 microliters of a 3 mM 3:1 DOHBD:DOPE liposome mixture, 270 microliters of a 8.08 microgram/microliter pCMV.FOX.hGH plasmid DNA mixture, and an appropriate amount of a 70 mM zinc chloride mixture were added to a polystyrene tube containing a sufficient amount of water to give a final total volume of 2500 microliters. In this experiment, the final zinc chloride concentration was either 0.125 mM, 0.250 mM, or no zinc at all. The cationic lipid:DNA phosphate ratio in this study remained constant for all mixtures screened. Once prepared, 200 microliters of each mixture was instilled into the right and left submandibular glands of four male Sprague-Dawley rats. Thus, 175 micrograms of the plasmid DNA was instilled into each gland. After one week post-administration of the cationic lipid/nucleic acid/zinc mixtures, the salivary gland of the rats were extracted, mixed with a phosphate lysis buffer (10 mM, pH 8.0) and homogenized. The homogenate was then assayed for human growth hormone protein expression. […]

For [Cl-].[Cl-].[Zn+2] [ZnCl2, zinc chloride], the “human growth hormone protein expression, Average” value ([Zn] 0.125 mM) was 505.6361, the “human growth hormone protein expression, Average” value ([Zn] 0.25 mM) was 464.7687 and the “human growth hormone protein expression, Trial 1 to Trial 8” value ([Zn] 0.125 mM) was 452.1 and 360.8 and 261.7 and 355.7 and 517.2 and 575.6 and 943.5 and 1084. The “human growth hormone protein expression, Trial 1 to Trial 8” value ([Zn] 0.25 mM) was 857.731 and 753.3 and 272.6 and 315.3 and 604.3 and 449.9 and the “enhancement of in vivo transfection compared to cationic liposome/nucleic acid mixture not containing zinc” value (rat submandibular gland) was “at least two”.
